Test results reported in US7538222B2, “N-substituted piperidine derivatives as serotonin receptor agents” (ACADIA Pharmaceuticals, Inc., priority 2002, dated 2009).

Test system: Male NSA mice
Experiment: In vivo determination of behavioral effects (motor activity / MK-801 hyperactivity), minimum effective dose
Details: p.o., lowest dose significantly different from vehicle control (distance traveled)
Experimental: Animals and Apparatus. Male NSA mice (Harlan; San Deigo, Calif.) were used as subjects. Mice weighed 20-30 g. Animals were housed 8/cage in the One Cage system (One Cage; Lab Products, Inc., Seaford, Del.) with bedding (⅛ inch Bed “O” Cob; Harlan Teklad, Madison, Wis.) in a room with controlled temperature 22±3° C. and a 12 hour light:dark cycle (lights on 6 am). Water and standard rodent chow (Harlan Teklad) were continuously available in the home cage. For testing, plastic locomotor activity cages (20×20×30 cm; AccuScan Instruments, Columbus, Ohio) were equipped with photocell beams for monitoring horizontal activity. Data were collected using Versamax computer software (AccuScan Instruments).
For determination of spontaneous activity, test compounds were administered alone (s.c. 10 min or p.o. 30 min before the session). For hyperactivity experiments, mice were injected with 0.3 mg/kg MK-801 i.p. 15 min presession (the peak dose for producing hyperactivity in an inverted-U dose-effect curve as determined in pilot experiments) in combination with vehicle or test compound. Motor activity data were collected during a 15 min session in a lit room. Mice had no prior exposure to the motor cages. Each dose or dose combination was tested in a separate group of mice (n=8).
Distance traveled (cm) was calculated and averaged across animals in a group. […]

CC(C)COc1ccc(CC(=O)N(Cc2ccc(F)cc2)C2CCN(CCCN3C(=O)OC[C@@H]3C(C)C)CC2)cc1.O=C(O)C(=O)O [117NLS01, N-(4-Fluorobenzyl)-2-(4-isobutoxyphenyl)-N-{1-[3-(4-(S)-isopropyl-2-oxo-oxazolidin-3-yl)propyl]piperidin-4-yl}acetamide]
MED in vivo po: 1 mg/kg
